Test [1] concerns the target NAMPT (human, recombinant, C-terminally His-tagged) (Homo sapiens, UniProt P43490). The experiment in a line: Time-Resolved Fluorescence Resonance Energy Transfer (TR-FRET) Binding Assay of NAMPT. The following applies: absence of substrates; 6.8 nM NAMPT, 200 nM probe, equilibrated 3 hours. On the procedure:
Determination of the utility of compounds having Formula (I) as binders to and inhibitors of NAMPT was performed using Time-Resolved Fluorescence Resonance Energy Transfer (TR-FRET) binding assays.
Time-Resolved Fluorescence Resonance Energy Transfer (TR-FRET) Binding Assay of NAMPT
Test compounds were serially diluted (typically 11 half log dilutions) in neat DMSO to 50× final concentrations prior to dilution with assay buffer (50 mM HEPES (NaOH), pH 7.5, 100 mM NaCl, 10 mM MgCl2, 1 mM DTT, 1% Glycerol) to 3× and 6% DMSO. Six μL were transferred to 384-well low-volume plates (Owens Corning #3673). To this, 12 μL of a 1.5× solution containing enzyme, probe and antibody were added. Final concentrations in the 18 μL reactions were 1× assay buffer, 2% DMSO, 6.8 nM NAMPT (human, recombinant, C-terminally His-tagged), 200 nM probe (a potent nicotinamide-competitive inhibitor conjugated to Oregon Green 488) and 1 nM Tb-anti-His antibody (Invitrogen #PV5895). Reactions were equilibrated at room temperature for 3 hours prior to reading on an Envision multi-label plate reader (Perkin Elmer; Ex=337 nm, Em=520 and 495 nm). Time-resolved FRET ratios (Em520/Em495) were normalized to controls, plotted as a function of compound concentration and fit with the four-parameter logistic equation to determine IC50s.

The target of another test is NAMPT (Homo sapiens, UniProt P43490). Briefly: Time-Resolved Fluorescence Resonance Energy Transfer (TR-FRET) Binding Assay of NAMPT with PRPP. The settings on record: 200 μM PRPP and 2.5 mM ATP; 2 nM NAMPT, 2 nM probe, equilibrated 16 hours. On the procedure:
Time-Resolved Fluorescence Resonance Energy Transfer (TR-FRET) Binding Assay of NAMPT with PRPP
Compound handling and data processing were identical to the assay in the absence of substrates (above). Final concentrations were 1× assay buffer, 2% DMSO, 2 nM NAMPT, 2 nM probe, 1 nM Tb-anti-His antibody (Invitrogen #PV5895), 200 μM PRPP and 2.5 mM ATP. Reactions were equilibrated for 16 hours prior to measurement to allow for potential enzymatic modification of test compounds.

Bounds are passed on as bounds.

Chain of NAMPT (P43490 whole entry): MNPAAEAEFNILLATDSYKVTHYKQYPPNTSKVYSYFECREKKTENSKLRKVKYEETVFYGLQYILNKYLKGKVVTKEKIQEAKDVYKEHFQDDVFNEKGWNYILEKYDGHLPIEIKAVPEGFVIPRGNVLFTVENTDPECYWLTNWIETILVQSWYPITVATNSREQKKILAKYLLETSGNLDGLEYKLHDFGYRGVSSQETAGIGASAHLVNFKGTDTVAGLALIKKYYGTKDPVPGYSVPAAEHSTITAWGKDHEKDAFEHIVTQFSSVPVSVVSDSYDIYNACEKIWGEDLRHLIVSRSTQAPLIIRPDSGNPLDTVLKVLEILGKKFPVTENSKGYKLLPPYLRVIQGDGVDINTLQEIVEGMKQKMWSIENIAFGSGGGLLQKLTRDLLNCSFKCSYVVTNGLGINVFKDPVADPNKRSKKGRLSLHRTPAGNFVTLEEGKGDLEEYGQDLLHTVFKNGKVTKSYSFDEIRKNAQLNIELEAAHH
Chain of NAMPT (human, recombinant, C-terminally His-tagged) (P43490 whole entry): as above

On to `CC(C)CCN(Cc1ccccc1F)c1ncc(C(=O)NCCCn2ccnc2)s1` [Example 55, 2-[(2-fluorobenzyl)(3-methylbutyl)amino]-N-[3-(1H-imidazol-1-yl)propyl]-1,3-thiazole-5-carboxamide], for which the IC50 in test [1] was more than 10000 nM; at NAMPT, 3180 nM.
On to `CC(C)CCN(Cc1cccc(F)c1)c1ncc(C(=O)NCCCn2ccnc2)s1` [Example 56, 2-[(3-fluorobenzyl)(3-methylbutyl)amino]-N-[3-(1H-imidazol-1-yl)propyl]-1,3-thiazole-5-carboxamide], for which the IC50 in test [1] came to 6070 nM; at NAMPT, 0.719 nM.
Take `CC(C)CCN(Cc1ccccc1Cl)c1ncc(C(=O)NCCCn2ccnc2)s1` [Example 57, 2-[(2-chlorobenzyl)(3-methylbutyl)amino]-N-[3-(1H-imidazol-1-yl)propyl]-1,3-thiazole-5-carboxamide]: the results for the IC50 (in test [1]; at NAMPT) were more than 10000 nM and 1160 nM, respectively.
On to `CC(C)CCN(Cc1cccc(Cl)c1)c1ncc(C(=O)NCCCn2ccnc2)s1` [Example 58, 2-[(3-chlorobenzyl)(3-methylbutyl)amino]-N-[3-(1H-imidazol-1-yl)propyl]-1,3-thiazole-5-carboxamide], for which the IC50 in test [1] stood at 1720 nM; at NAMPT, 807 nM.
`CC(C)CCN(Cc1ccc(Cl)cc1)c1ncc(C(=O)NCCCn2ccnc2)s1` [Example 59, 2-[(4-chlorobenzyl)(3-methylbutyl)amino]-N-[3-(1H-imidazol-1-yl)propyl]-1,3-thiazole-5-carboxamide]: the IC50 in test [1] was more than 10000 nM; at NAMPT, 266 nM.
Regarding `CC(C)CCN(Cc1ccc(C#N)cc1)c1ncc(C(=O)NCCCn2ccnc2)s1` [Example 60, 2-[(4-cyanobenzyl)(3-methylbutyl)amino]-N-[3-(1H-imidazol-1-yl)propyl]-1,3-thiazole-5-carboxamide], the values for the IC50 (in test [1]; on NAMPT) were more than 10000 nM and 4.97 nM, respectively.
Take `N#Cc1ccc(CN(C(=O)CC2CCOC2)c2ncc(C(=O)NCCCn3ccnc3)s2)cc1` (centres unmarked) [Example 61, 2-[(4-cyanobenzyl)(tetrahydrofuran-3-ylacetyl)amino]-N-[3-(1H-imidazol-1-yl)propyl]-1,3-thiazole-5-carboxamide]: the IC50 in test [1] was 1900 nM; at NAMPT, 1.78 nM.
Consider `COCCC(=O)N(Cc1ccc(C#N)cc1)c1ncc(C(=O)NCCCn2ccnc2)s1` [Example 62, 2-[(4-cyanobenzyl)(3-methoxypropanoyl)amino]-N-[3-(1H-imidazol-1-yl)propyl]-1,3-thiazole-5-carboxamide], for which the IC50 in test [1] worked out at 810 nM; on NAMPT, 1.08 nM.
On to `CC(C)CCNC(=O)N(Cc1ccc(F)cc1)c1ncc(C(=O)NCCCn2ccnc2)s1` [Example 63, 2-{(4-fluorobenzyl)[(3-methylbutyl)carbamoyl]amino}-N-[3-(1H-imidazol-1-yl)propyl]-1,3-thiazole-5-carboxamide], for which the results for the IC50 (in test [1]; at NAMPT) were 2250 nM and 0.693 nM, respectively.
On to `CC(C)CNC(=O)N(Cc1ccc(F)cc1)c1ncc(C(=O)NCCCn2ccnc2)s1` [Example 64, 2-{(4-fluorobenzyl)[(2-methylpropyl)carbamoyl]amino}-N-[3-(1H-imidazol-1-yl)propyl]-1,3-thiazole-5-carboxamide], for which the IC50 in test [1] came out at 1850 nM; at NAMPT it was 2.97 nM.
For `NC(=O)C1CCCN(C(=O)N(Cc2ccc(F)cc2)c2ncc(C(=O)NCCCn3ccnc3)s2)C1` (centres unmarked) [Example 65, N^1-(4-fluorobenzyl)-N^1-(5-{[3-(1H-imidazol-1-yl)propyl]carbamoyl}-1,3-thiazol-2-yl)piperidine-1,3-dicarboxamide], the IC50 was more than 10000 nM in test [1] and 5.37 nM at NAMPT.
On to `O=C(NCCCn1ccnc1)c1cnc(N(Cc2ccc(F)cc2)C(=O)N2CC(O)C2)s1` [Example 66, 2-{(4-fluorobenzyl)[(3-hydroxyazetidin-1-yl)carbonyl]amino}-N-[3-(1H-imidazol-1-yl)propyl]-1,3-thiazole-5-carboxamide], for which the IC50 is more than 10000 nM in test [1] and 2.42 nM on NAMPT.
On the same counts, the results for `O=C(NCCCn1ccnc1)c1cnc(N(Cc2ccc(F)cc2)C(=O)N2CCC3(C2)OCCO3)s1` [Example 67, N-(4-fluorobenzyl)-N-(5-{[3-(1H-imidazol-1-yl)propyl]carbamoyl}-1,3-thiazol-2-yl)-1,4-dioxa-7-azaspiro[4.4]nonane-7-carboxamide] are more than 10000 nM and 3.53 nM.
On the same counts, the results for `COC1CCN(C(=O)N(Cc2ccc(F)cc2)c2ncc(C(=O)NCCCn3ccnc3)s2)C1` (centres unmarked) [Example 68, 2-{(4-fluorobenzyl)[(3-methoxypyrrolidin-1-yl)carbonyl]amino}-N-[3-(1H-imidazol-1-yl)propyl]-1,3-thiazole-5-carboxamide] are more than 10000 nM and 4.68 nM.
On the same counts, the results for `COCCN(C)C(=O)N(Cc1ccc(F)cc1)c1ncc(C(=O)NCCCn2ccnc2)s1` [Example 69, 2-{(4-fluorobenzyl)[(2-methoxyethyl)(methyl)carbamoyl]amino}-N-[3-(1H-imidazol-1-yl)propyl]-1,3-thiazole-5-carboxamide] are more than 10000 nM and 3.98 nM.
For the molecule `CC1CN(C(=O)N(Cc2ccc(F)cc2)c2ncc(C(=O)NCCCn3ccnc3)s2)CC(C)O1` (centres unmarked) [Example 70, N-(4-fluorobenzyl)-N-(5-{[3-(1H-imidazol-1-yl)propyl]carbamoyl}-1,3-thiazol-2-yl)-2,6-dimethylmorpholine-4-carboxamide], the values for the IC50 (in test [1]; at NAMPT) were more than 10000 nM and 5.08 nM, respectively.
Take `CCN(CCOC)C(=O)N(Cc1ccc(F)cc1)c1ncc(C(=O)NCCCn2ccnc2)s1` [Example 71, 2-{[ethyl(2-methoxyethyl)carbamoyl](4-fluorobenzyl)amino}-N-[3-(1H-imidazol-1-yl)propyl]-1,3-thiazole-5-carboxamide]: the IC50 in test [1] stood at 533 nM; at NAMPT, 0.7 nM.
`CC1(C)CN(C(=O)N(Cc2ccc(F)cc2)c2ncc(C(=O)NCCCn3ccnc3)s2)CCO1` [Example 72, N-(4-fluorobenzyl)-N-(5-{[3-(1H-imidazol-1-yl)propyl]carbamoyl}-1,3-thiazol-2-yl)-2,2-dimethylmorpholine-4-carboxamide]: the concentration for half-maximal inhibition (IC50) in test [1] was more than 10000 nM; at NAMPT it was 3.99 nM.
On the same counts, the results for `O=C(NCCCn1ccnc1)c1cnc(N(Cc2ccc(F)cc2)C(=O)N2CCCOCC2)s1` [Example 73, N-(4-fluorobenzyl)-N-(5-{[3-(1H-imidazol-1-yl)propyl]carbamoyl}-1,3-thiazol-2-yl)-1,4-oxazepane-4-carboxamide] are more than 10000 nM and 7.04 nM.
In the case of `CC(C)CCN(C(=O)C(C)Oc1ccccc1)c1ncc(C(=O)NCCCn2ccnc2)s1` (centres unmarked) [Example 77, N-[3-(1H-imidazol-1-yl)propyl]-2-[(3-methylbutyl)(2-phenoxypropanoyl)amino]-1,3-thiazole-5-carboxamide], the IC50 in test [1] was 95.6 nM; on NAMPT it was 0.774 nM.
On to `CCCOCCNC(=O)N(Cc1ccc(F)cc1)c1ncc(C(=O)NCCCn2ccnc2)s1` [Example 78, 2-{(4-fluorobenzyl)[(2-propoxyethyl)carbamoyl]amino}-N-[3-(1H-imidazol-1-yl)propyl]-1,3-thiazole-5-carboxamide], for which the IC50 in test [1] was 2900 nM; at NAMPT, 0.969 nM.
Take `O=C(NCCCn1ccnc1)c1cnc(N(Cc2ccc(F)cc2)C(=O)NCC2CCCO2)s1` (centres unmarked) [Example 79, 2-{(4-fluorobenzyl)[(tetrahydrofuran-2-ylmethyl)carbamoyl]amino}-N-[3-(1H-imidazol-1-yl)propyl]-1,3-thiazole-5-carboxamide]: the IC50 in test [1] turned out to be 6580 nM; at NAMPT, 2.77 nM.
In the case of `COCC(C)NC(=O)N(Cc1ccc(F)cc1)c1ncc(C(=O)NCCCn2ccnc2)s1` (centres unmarked) [Example 80, 2-{(4-fluorobenzyl)[(1-methoxypropan-2-yl)carbamoyl]amino}-N-[3-(1H-imidazol-1-yl)propyl]-1,3-thiazole-5-carboxamide], the IC50 in test [1] came to 8020 nM; on NAMPT, 1.37 nM.
On the same counts, the results for `O=C(NCCCn1ccnc1)c1cnc(N(Cc2ccc(F)cc2)C(=O)NCC2CCCCO2)s1` (centres unmarked) [Example 81, 2-{(4-fluorobenzyl)[(tetrahydro-2H-pyran-2-ylmethyl)carbamoyl]amino}-N-[3-(1H-imidazol-1-yl)propyl]-1,3-thiazole-5-carboxamide] are 5280 nM and 1.78 nM.
Take `COCCNC(=O)N(Cc1ccc(F)cc1)c1ncc(C(=O)NCCCn2ccnc2)s1` [Example 82, 2-{(4-fluorobenzyl)[(2-methoxyethyl)carbamoyl]amino}-N-[3-(1H-imidazol-1-yl)propyl]-1,3-thiazole-5-carboxamide]: the IC50 in test [1] turned out to be 7540 nM; on NAMPT, 1.72 nM.

For the origin of these results see patent US9334264B2, “NAMPT inhibitors” (AbbVie Inc., priority 2012, dated 2016).
